Measurements as given in patent US20090258069A1, “Delivery of LFA-1 antagonists to the gastrointestinal system” (priority 2008, published 2009).
Values joined by “and” are separate entries in the source; they are usually repeats but may differ in a detail not shown here. Identical values can stand only once. Like-named read-outs stand apart in the source and are kept apart here.

Tests used:
[1] = Plasma PK in rats after a single IV bolus dose; assay type: in vivo, rat; settings: for AUC: read-out: AUC0-n
[2] = system: Keratoconjunctivitis Sicca (KCS); assay: Canine keratoconjunctivitis sicca (KCS) study, Schirmer tear test and conjunctival biopsy; assay type: in vivo, dog; settings: for Schirmer Tear Test Results (OD), Mean: Dog #1 not included; for Schirmer Tear Test Results (OS), Mean: Dog #7 not included; for Schirmer Tear Test Results (OS), individual dogs: left eye; for Schirmer Tear Test Results (OD), individual dogs: right eye
Text: If dogs had been treated with topical CsA or tacrolimus in the previous six months, they were not enrolled. […] Animals were subjected to an ocular examination once during the initial visit and during five visits over sixteen weeks of the study (Weeks, 2, 4, 8, 12 and 16). The last OE was approximately four weeks after the last dose of Compound 12 and after one month of CsA treatment. The adnexa and anterior portions of both eyes were examined using an indirect opthalmoscope. The eyes were dilated with a mydriatic when applicable, to allow evaluation of the lens and fundus, including the retina. An evaluation using a modified McDonald-Shaddock scoring system was performed in conjunction with the slitlamp ocular examinations at each interval. […] One strip of STT paper was used for each eye for each interval. […] The length, in mm, of wetting below the notch of the paper was recorded. Conjunctival biopsies were taken at the initial (pretreatment) visit and the Week 12 visit. The second biopsy was taken more lateral (approx. 1 mm) to the initial biopsy. Following appropriate preparation a small conjunctival biopsy was taken from the ventral fornix of each eye.

[3] = Skin transport studies on microtomed human skin; assay type: in vitro ADME; settings: 1% (w/w) prototypes; [^14C]-Compound 12
Text: Prototypes have been developed and tested on microtomed human skin from elective surgery at 1% (w/w). The forms include gels, ointment, or lotion. […] Skin transport studies performed with LC/MS/MS analysis indicate high Compound 12 levels in epidermis and dermis and low levels in the receiver.

[4] = system: Chinese hamster ovary (CHO) cells; assay: In vitro chromosomal aberration assay in CHO cells; assay type: cell-based; settings: with and without metabolic activation, except single toxic dose 3500 μg/mL, 3-hour
Text: The biological relevance of this response is equivocal due to cytotoxicity.

in vivo = settings: topical or ocular
[5] = Single dose ocular and IV ADME with [^14C]-Compound 12 in dogs; assay type: in vivo, dog
Text: Following an ocular dose, the highest average [^14C]-Compound 12 levels were detected in anterior ocular tissues (see FIG. 16). […] No differences in results from male and female dogs were observed.

[6] = system: attachment of Jurkat cells to ICAM-1; assay: T-cell adhesion assay using Jurkat cells; assay type: cell-based, human
Protocol: A reported LFA-1 antagonist was used as the positive control.
Jurkat cells were labeled with an 8 μM solution of BCECF-AM (2′,7′-bis-(2-carboxyethyl)-5-(and -6)-carboxyfluorescein) in growth media at room temperature for 15 minutes. […] Non-adherent cells were removed by washing and centrifugation at 100 g for 1 minute. Adherent cells were determined as adherent fluorescent units on a fluorescent plate reader.

rats = assay: Respiratory function in rats, single IV bolus, head-out plethysmograph; assay type: in vivo, rat; settings: any dose
[7] = system: human mononuclear cells (PBMC) stimulated with staphylococcal enterotoxin B (SEB); assay: cells; assay type: cell-based
[8] = system: SEB stimulated IL-2 release in whole human blood; assay: cells; assay type: cell-based; settings: read-out: IC50 inhibition of SEB stimulated IL-2 release in whole human blood
Solubility studies = assay type: physicochemical
Pilot rat dermal study = assay type: in vivo; settings: 1% lotion, ointment, gel, DMSO; TID 7 days, 10 mg/cm^2 on about 6 cm^2
Protocol: The safety and tolerability of prototypical dermal formulations (1% lotion, ointment, and gel) were assessed on rats given TID for seven consecutive days—approximately 6 cm^2 with 10 mg/cm^2.

[9] = 30.0 mg/kg single IV bolus, from rat safety pharmacology study
[10] = rat, 10.0 mg/kg single IV bolus
[11] = Week 1, 1% solution (Formulation 15) 0.35 mg/eye TID, one grid row per dog
[12] = Week 16, Compound 12 stopped at week 12, then 4 weeks CsA 0.2% ointment TID
[13] = Weeks 1-12 of Compound 12 administration

Structure (SMILES): CS(=O)(=O)c1cccc(C[C@H](NC(=O)c2c(Cl)cc3c(c2Cl)CCN(C(=O)c2ccc4ccoc4c2)C3)C(=O)O)c1 [Compound 12]
- Cmax [1, 9]: 5120 ng/mL
- AUC [1, 9]: 2350 ng·h/mL
- Cmax [1, 10]: 1060 ng/mL
- MRT [1, 10]: 55.2 min
- clearance [1, 10]: 173 mL/min/kg
- half-life [1, 10]: 226 min
- AUC [1, 10]: 728 ng·h/mL
- Vd ([1]; rat, 10.0 mg/kg single IV bolus, read-out: Vss): 9.56 L/kg
- Schirmer Tear Test Results (OD), Mean ([2]; Week 1): 5.5 mm
- Schirmer Tear Test Results (OS), Mean ([2]; Week 1): 4.2 mm
- Schirmer Tear Test Results (OS), individual dogs [2, 11]: 9 mm (2×) and 18 mm and 0 mm (3×) and 7 mm
- Schirmer Tear Test Results (OD), individual dogs [2, 11]: 8 mm (2×) and 6 mm (2×) and 15 mm and 0 mm and 5 mm
- Schirmer Tear Test Results (OD), Mean ([2]; Week 2): 7.8 mm
- Schirmer Tear Test Results (OS), Mean ([2]; Week 2): 4.8 mm
- Schirmer Tear Test Results (OS), individual dogs ([2]; Week 2, 1% solution TID): 4 mm and 0 mm (2×) and 14 mm and 3 mm and 8 mm
- Schirmer Tear Test Results (OD), individual dogs ([2]; Week 2, 1% solution TID): 10 mm and 2 mm (2×) and 18 mm and 11 mm (3×)
- Schirmer Tear Test Results (OD), Mean ([2]; Week 4): 7.0 mm
- Schirmer Tear Test Results (OS), Mean ([2]; Week 4): 6.7 mm
- Schirmer Tear Test Results (OS), individual dogs ([2]; Week 4, 1% solution TID): 14 mm (2×) and 0 mm (2×) and 7 mm and 5 mm
- Schirmer Tear Test Results (OD), individual dogs ([2]; Week 4, 1% solution TID): 15 mm and 2 mm and 12 mm and 0 mm and 5 mm and 10 mm (2×)
- Schirmer Tear Test Results (OD), Mean ([2]; Week 8): 8.5 mm
- Schirmer Tear Test Results (OS), Mean ([2]; Week 8): 6.5 mm
- Schirmer Tear Test Results (OS), individual dogs ([2]; Week 8, 1% solution TID): 8 mm (2×) and 19 mm and 0 mm and 2 mm and 17 mm and 6 mm
- Schirmer Tear Test Results (OD), individual dogs ([2]; Week 8, 1% solution TID): 17 mm and 1 mm and 16 mm and 8 mm and 7 mm (2×) and 11 mm
- Schirmer Tear Test Results (OD), Mean ([2]; Week 12): 8.8 mm
- Schirmer Tear Test Results (OS), Mean ([2]; Week 12): 8.7 mm
- Schirmer Tear Test Results (OS), individual dogs ([2]; Week 12, 1% solution TID): 8 mm (2×) and 18 mm and 3 mm and 7 mm and 15 mm and 4 mm
- Schirmer Tear Test Results (OD), individual dogs ([2]; Week 12, 1% solution TID): 16 mm and 0 mm and 13 mm (2×) and 8 mm and 7 mm and 9 mm
- Schirmer Tear Test Results (OS), Mean ([2]; Week 16 (after 4 weeks CsA)): 11.0 mm
- Schirmer Tear Test Results (OS), individual dogs [2, 12]: 17 mm and 18 mm and 3 mm and 5 mm and 16 mm and 7 mm and 19 mm
- Schirmer Tear Test Results (OD), individual dogs [2, 12]: 18 mm and 12 mm (2×) and 8 mm (3×) and 22** mm
- Maximum-Minimum Analysis, maximal change in STT, OD, per dog [2, 13]: 3 mm and 8 mm (3×) and −4 mm and 5 mm
- Maximum-Minimum Analysis, maximal change in STT, OS, per dog [2, 13]: 7 mm (2×) and 11 mm and 3 mm and 10 mm and 6 mm
- Histopathological evaluation of conjunctival biopsies before and after treatment ([2]; pretreatment vs Week 12): attenuation of lymphocyte accumulation
- Schirmer test scores over pretreatment ([2]; week 12): Significant improvement
- Compound 12 in dermis [3]: greater than 10 micromolar
- dose penetration [3]: 2-4%
- structural chromosomal aberrations in CHO cells [4]: negative
- AUC (in vivo; 0.105 mg): 5.19 ± 5.39 ng·h/mL
- Cmax (in vivo; 0.105 mg): 11.7 ± 8.8 ng/mL
- AUC (in vivo; 0.35 mg): 7.35 ± 1.52 ng·h/mL
- Cmax (in vivo; 0.35 mg): 13.1 ± 2.12 ng/mL
- levels in conjunctiva/cornea ([5]; dog, for 16 hrs): greater than 1 micromolar
- metabolites in pooled plasma, urine and fecal homogenate ([5]; up to 168 hrs post-dose, 3 mg/eye or 3 mg/dog): no metabolites detected
- Jurkat cell attachment to ICAM-1 ([6]; 30 min preincubation, 1 h at 37° C.): inhibition of Jurkat cell attachment with increasing dose
- dose response curve and IC50, Jurkat cell attachment ([6]; vs positive control): comparable to that of the known direct competitive LFA-1 antagonist
- respiratory function (tidal volume, respiration rate, minute volume) (rats): No adverse changes
- EC50 ([7]; read-out: EC50 Cytokine Release GM-CSF): 0.545 µM
- EC50 ([7]; read-out: EC50 Cytokine Release IFNγ): 0.0016 µM
- EC50 ([7]; read-out: EC50 Cytokine Release IL-1α): 0.24 µM
- EC50 ([7]; read-out: EC50 Cytokine Release IL-1β): 0.36 µM
- EC50 ([7]; read-out: EC50 Cytokine Release IL-2): 0.0018 µM
- EC50 ([7]; read-out: EC50 Cytokine Release IL-3): 52.2 µM
- EC50 ([7]; read-out: EC50 Cytokine Release IL-4): 0.143 µM
- EC50 ([7]; read-out: EC50 Cytokine Release IL-5): 0.11 µM
- EC50 ([7]; read-out: EC50 Cytokine Release IL-6): 43.5 µM
- EC50 ([7]; read-out: EC50 Cytokine Release IL-10): 0.147 µM
- EC50 ([7]; read-out: EC50 Cytokine Release IL-12p40): > 1000 µM
- EC50 ([7]; read-out: EC50 Cytokine Release IL-13): 0.36 µM
- EC50 ([7]; read-out: EC50 Cytokine Release IP-10): 1.16 µM
- EC50 ([7]; read-out: EC50 Cytokine Release MCP-1): 0.005 µM
- EC50 ([7]; read-out: EC50 Cytokine Release MIP-1α): 0.02 µM
- EC50 ([7]; read-out: EC50 Cytokine Release TNF-α): 0.076 µM
- IC50 ([7]; read-out: IC50 values in in vitro cell assays (cell attachment and SEB IL-2 release)): 2 nM
- IC50 [8]: 69 nM
- solubility (Solubility studies; ethanol/glycol/transcutol solution): 10 % (w/w)
- solubility (Solubility studies; water/glycol/transcutol solution): 2 % (w/w)
- serum level after dermal dosing (Pilot rat dermal study): detectable in serum
